Five compounds from ChEMBL document CHEMBL1201862, “PubChem BioAssay data set” (2004) can be followed below.

Molecules are shown by their SMILES. Activity calls are given as the source filed them. Cut-off read from the data, not from the text of the source, for most assays here: actives have a measured IC50 and inactives only a lower limit.

One assay addresses T1, CAAX prenyl protease 2 (Saccharomyces cerevisiae S288c, UniProt Q03530).
T1 sequence (Q03530 whole entry): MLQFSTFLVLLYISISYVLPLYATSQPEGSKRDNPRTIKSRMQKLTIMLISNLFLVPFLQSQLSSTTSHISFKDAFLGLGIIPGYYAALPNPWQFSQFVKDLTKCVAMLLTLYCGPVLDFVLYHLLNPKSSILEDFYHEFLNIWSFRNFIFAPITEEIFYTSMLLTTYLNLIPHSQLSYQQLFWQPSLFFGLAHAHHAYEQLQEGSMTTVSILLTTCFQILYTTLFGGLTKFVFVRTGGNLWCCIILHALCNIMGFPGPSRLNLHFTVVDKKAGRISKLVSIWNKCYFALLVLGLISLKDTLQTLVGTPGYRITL
The assay is classed as biochemical.

The target of assay [1] is DNA damage-inducible transcript 3 protein (Mus musculus, UniProt P35639). Format: functional, Cricetulus griseus.
Sequence of DNA damage-inducible transcript 3 protein (P35639 whole entry): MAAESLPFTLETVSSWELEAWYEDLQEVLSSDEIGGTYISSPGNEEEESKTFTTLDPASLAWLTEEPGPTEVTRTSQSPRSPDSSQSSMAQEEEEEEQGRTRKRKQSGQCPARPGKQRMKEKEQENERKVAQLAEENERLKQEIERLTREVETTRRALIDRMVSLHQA
Assay [2] deals with T2, Heat shock factor protein 1 (Mus musculus, UniProt P38532).
T2 sequence (P38532 whole entry): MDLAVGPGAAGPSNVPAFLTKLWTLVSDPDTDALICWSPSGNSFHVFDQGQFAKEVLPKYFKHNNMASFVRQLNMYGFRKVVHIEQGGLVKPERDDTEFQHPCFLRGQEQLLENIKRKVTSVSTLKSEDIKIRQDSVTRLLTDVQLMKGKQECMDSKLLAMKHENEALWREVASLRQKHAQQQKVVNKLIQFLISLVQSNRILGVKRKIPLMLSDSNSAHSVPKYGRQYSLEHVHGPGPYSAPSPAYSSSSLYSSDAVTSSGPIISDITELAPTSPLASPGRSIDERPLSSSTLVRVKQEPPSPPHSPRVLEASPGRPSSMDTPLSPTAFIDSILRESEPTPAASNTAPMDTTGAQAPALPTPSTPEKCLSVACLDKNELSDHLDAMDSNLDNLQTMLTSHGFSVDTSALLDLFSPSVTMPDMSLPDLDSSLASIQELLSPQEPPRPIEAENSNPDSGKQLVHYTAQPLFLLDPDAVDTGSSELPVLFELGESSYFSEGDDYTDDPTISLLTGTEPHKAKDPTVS
Description: HSF1 potentiators in luciferase reporter cells, confirmation, cell-based, NIH3T3, luminescence, dose retest (AID 435004).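 Note: stress induced by proteasome inhibitor MG132 added 30 min after compound; luciferase reporter driven by HSF1 response element in NIH3T3 cells; actives raise luminescence as potentiators of the MG132 stress response.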 The assay is classed as functional.

For another assay, the target named is T3, Hexokinase-1 (Homo sapiens, UniProt P19367).
T3 sequence (P19367 whole entry): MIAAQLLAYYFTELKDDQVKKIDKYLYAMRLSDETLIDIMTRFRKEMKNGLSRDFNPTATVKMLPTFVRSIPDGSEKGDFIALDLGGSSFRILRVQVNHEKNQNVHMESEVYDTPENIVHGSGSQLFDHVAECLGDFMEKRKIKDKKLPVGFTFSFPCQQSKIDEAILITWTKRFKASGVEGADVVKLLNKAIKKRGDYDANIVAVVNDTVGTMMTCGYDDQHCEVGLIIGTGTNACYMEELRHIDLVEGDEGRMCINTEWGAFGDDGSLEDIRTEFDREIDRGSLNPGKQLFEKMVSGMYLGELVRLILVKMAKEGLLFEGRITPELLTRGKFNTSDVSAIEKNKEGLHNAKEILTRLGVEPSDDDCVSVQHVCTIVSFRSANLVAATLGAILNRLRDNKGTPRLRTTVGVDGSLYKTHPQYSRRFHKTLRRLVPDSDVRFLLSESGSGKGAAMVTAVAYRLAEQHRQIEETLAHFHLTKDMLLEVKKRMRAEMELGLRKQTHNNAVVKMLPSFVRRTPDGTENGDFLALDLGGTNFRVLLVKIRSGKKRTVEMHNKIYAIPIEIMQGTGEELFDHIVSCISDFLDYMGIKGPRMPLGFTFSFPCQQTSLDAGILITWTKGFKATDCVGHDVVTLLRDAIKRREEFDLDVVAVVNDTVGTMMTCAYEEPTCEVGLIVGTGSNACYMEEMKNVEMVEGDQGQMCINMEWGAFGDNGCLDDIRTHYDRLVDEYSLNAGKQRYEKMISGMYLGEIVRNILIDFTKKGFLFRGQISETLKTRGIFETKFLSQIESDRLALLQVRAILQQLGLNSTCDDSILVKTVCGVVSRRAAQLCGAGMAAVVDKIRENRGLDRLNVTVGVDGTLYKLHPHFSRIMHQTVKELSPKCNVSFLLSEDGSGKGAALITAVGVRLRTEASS
Description: hexokinase 1 activators, dose response, selectivity assay for HKDC1 activator project, biochemical (AID 504762). The assay is classed as functional.

The next assay has as its target T4, Hexokinase HKDC1 (Homo sapiens, UniProt Q2TB90).
T4 sequence (Q2TB90 whole entry): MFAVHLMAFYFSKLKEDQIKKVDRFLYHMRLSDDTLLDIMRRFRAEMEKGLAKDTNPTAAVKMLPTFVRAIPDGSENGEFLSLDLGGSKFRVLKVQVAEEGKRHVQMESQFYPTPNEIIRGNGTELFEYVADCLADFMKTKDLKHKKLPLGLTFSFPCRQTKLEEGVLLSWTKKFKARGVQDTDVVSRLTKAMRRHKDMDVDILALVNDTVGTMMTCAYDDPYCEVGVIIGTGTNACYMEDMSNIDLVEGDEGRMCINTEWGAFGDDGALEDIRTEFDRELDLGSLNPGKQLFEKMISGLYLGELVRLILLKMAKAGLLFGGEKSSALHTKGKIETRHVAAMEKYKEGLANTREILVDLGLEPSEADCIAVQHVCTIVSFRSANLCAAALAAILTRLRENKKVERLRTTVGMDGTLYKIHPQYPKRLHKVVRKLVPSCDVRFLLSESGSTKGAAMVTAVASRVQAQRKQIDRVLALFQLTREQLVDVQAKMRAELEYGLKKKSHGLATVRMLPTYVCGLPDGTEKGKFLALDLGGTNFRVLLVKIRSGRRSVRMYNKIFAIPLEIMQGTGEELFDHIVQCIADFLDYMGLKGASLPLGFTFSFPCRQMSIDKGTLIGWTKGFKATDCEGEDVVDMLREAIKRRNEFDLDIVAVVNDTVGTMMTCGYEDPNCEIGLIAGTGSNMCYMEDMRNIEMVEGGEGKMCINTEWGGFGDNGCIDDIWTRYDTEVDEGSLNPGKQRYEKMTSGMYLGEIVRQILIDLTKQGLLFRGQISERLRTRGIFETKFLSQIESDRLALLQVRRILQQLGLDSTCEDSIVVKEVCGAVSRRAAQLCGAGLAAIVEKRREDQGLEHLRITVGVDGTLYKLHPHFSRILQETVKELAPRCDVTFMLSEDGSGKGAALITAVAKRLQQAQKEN
Description: HKDC1 hexokinase activators, dose response, biochemical, W721R variant (AID 504730). The assay is classed as functional.

Assay [3] concerns the target T5, Dual specificity protein phosphatase 6 (Rattus norvegicus, UniProt Q64346).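 Note: confirmatory in vitro dose-response testing of MKP-3 inhibition; recombinant His-tagged MKP-3 made in E. coli BL21 with OMFP substrate.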
T5 sequence (Q64346 whole entry): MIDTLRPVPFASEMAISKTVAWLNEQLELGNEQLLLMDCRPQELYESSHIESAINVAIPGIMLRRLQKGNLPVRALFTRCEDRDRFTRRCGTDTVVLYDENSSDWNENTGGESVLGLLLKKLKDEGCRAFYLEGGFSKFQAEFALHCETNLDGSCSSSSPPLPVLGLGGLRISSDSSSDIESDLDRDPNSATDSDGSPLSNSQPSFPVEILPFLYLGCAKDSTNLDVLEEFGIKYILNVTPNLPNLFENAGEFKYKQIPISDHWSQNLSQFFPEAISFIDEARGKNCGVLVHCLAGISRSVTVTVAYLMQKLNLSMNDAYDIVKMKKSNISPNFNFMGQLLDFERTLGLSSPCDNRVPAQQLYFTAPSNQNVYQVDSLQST
Format: functional.

In assay [4] the target is T6, Tyrosine-protein phosphatase non-receptor type 7 (Homo sapiens, UniProt P35236).
T6 sequence (P35236 whole entry): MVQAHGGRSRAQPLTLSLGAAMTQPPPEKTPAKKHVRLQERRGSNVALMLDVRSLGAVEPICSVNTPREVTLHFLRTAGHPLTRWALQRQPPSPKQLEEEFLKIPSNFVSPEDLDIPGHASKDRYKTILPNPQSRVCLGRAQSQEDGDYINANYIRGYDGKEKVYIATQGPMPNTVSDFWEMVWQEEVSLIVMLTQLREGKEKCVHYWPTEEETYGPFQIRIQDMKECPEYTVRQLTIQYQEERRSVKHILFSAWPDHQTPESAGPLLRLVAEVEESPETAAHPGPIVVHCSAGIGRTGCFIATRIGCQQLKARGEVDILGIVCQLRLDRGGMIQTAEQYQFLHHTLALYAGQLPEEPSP
Description: redox-dependent HePTP inhibition, mechanism study, biochemical, fluorescence (AID 2068). The assay is classed as functional.

Assay [5] concerns the target T7, Tyrosine-protein phosphatase non-receptor type 22 (Homo sapiens, UniProt Q9Y2R2).
T7 sequence (Q9Y2R2 whole entry): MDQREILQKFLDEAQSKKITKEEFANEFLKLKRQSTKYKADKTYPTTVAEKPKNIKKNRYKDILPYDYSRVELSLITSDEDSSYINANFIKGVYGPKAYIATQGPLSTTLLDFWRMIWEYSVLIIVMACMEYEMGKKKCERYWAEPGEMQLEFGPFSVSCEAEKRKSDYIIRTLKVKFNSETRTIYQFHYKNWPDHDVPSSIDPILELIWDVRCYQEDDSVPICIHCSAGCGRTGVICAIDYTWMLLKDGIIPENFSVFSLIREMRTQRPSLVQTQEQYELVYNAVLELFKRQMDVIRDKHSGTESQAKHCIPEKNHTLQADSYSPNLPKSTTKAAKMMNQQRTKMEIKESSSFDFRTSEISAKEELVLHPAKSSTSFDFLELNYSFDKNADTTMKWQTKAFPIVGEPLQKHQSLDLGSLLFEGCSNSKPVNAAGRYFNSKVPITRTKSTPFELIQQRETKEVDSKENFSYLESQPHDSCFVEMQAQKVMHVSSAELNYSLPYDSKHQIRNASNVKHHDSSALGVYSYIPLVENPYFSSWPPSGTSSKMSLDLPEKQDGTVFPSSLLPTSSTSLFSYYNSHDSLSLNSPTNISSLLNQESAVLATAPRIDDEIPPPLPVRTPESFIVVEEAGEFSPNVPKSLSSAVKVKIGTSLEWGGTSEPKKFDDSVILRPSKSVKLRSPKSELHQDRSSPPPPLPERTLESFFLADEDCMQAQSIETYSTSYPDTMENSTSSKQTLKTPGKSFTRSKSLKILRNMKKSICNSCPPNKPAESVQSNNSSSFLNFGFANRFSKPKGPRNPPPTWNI
Description: SAR LYP1 Fluorescent Assay using OMFP substrate for In Vitro dose response studies - Set 3. [Related pubchem assays (depositor defined):AID1779, AID1784, AID2140, AID2686]. Format: functional.

The target of assay [6] is T6, Tyrosine-protein phosphatase non-receptor type 7. Description: HePTP (PTPN7) phosphatase inhibitor potency, SAR follow-up, biochemical, set 2 (AID 449736). The assay is classed as functional.
In assay [7] the target is T7, Tyrosine-protein phosphatase non-receptor type 22. Put plainly: LYP (PTPN22) phosphatase inhibitor potency, SAR follow-up, biochemical, pCAP fluorogenic substrate, fluorescence, set 3 (AID 449727). Format: functional.
The target in assay [8] is T8, Dual specificity protein phosphatase 3 (Homo sapiens, UniProt P51452). Put plainly: SAR VHR1 absorbance Assay for In Vitro dose response studies. [Related pubchem assays (depositor defined):AID1654, AID1661, AID1878, AID1992, AID2004].
T8 sequence (P51452 whole entry): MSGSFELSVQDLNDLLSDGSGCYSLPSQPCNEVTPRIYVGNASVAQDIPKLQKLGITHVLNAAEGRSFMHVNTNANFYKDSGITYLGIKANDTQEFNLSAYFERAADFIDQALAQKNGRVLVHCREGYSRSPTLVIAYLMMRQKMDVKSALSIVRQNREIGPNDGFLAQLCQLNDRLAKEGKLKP
Assay [9] concerns the target T8, Dual specificity protein phosphatase 3. Put plainly: SAR VHR1 Fluorescent Assay for In Vitro dose response studies. [Related pubchem assays (depositor defined):AID1654, AID1661, AID1878, AID1992, AID2004, AID2070, AID2085]. The assay is classed as functional.
Assay [10] concerns the target Tyrosine-protein phosphatase non-receptor type 12 (Homo sapiens, UniProt Q05209). Put plainly: SAR Selectivity Analysis of small molecule inhibitors of PEST using pCAP in a fluorescence assay. [Related pubchem assays (depositor defined):AID1779, AID1784, AID2135]. The assay is classed as functional.

Sequence of Tyrosine-protein phosphatase non-receptor type 12 (Q05209 whole entry): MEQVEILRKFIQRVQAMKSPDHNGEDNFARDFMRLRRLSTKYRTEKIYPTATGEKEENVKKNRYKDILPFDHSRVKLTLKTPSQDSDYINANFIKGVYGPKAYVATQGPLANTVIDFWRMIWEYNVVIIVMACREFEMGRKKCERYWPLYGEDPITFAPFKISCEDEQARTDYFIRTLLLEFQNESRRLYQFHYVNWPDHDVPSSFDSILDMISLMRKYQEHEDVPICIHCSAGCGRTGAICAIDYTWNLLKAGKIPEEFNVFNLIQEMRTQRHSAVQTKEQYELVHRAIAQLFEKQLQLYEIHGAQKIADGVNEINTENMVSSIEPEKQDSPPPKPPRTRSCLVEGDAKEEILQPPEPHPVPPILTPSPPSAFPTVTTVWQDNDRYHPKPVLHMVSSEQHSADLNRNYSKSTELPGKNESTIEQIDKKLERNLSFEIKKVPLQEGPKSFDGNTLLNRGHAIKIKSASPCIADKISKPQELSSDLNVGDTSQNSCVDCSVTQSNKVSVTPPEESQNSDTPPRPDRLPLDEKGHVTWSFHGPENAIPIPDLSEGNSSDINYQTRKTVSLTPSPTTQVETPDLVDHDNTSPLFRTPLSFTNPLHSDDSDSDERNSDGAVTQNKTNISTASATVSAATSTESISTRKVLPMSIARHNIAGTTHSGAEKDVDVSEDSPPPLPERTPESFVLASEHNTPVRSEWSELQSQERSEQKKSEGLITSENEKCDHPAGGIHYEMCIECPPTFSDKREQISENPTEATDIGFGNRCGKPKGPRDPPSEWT

Turning to `CC1(C)CC2CC(C)(CN2S(=O)(=O)c2ccc(N)cc2)C1` (stereo not given), the AC50 on CAAX prenyl protease 2 was 93.4 µM (active).

For the compound `Cc1cccc(C)c1N1CCN(c2ccc3nnc(C(F)(F)F)n3n2)CC1`, the “Absolute IC50 (CHOP)” value in assay [1] is 10 µM. The EC50 in assay [2] is 70 µM (active).

In the case of `O=S(=O)(c1ccc(NC(=S)NN=C(Cc2ccccc2)Cc2ccccc2)cc1)N1CCOCC1`, the results for the EC50 on Hexokinase-1 and at Hexokinase HKDC1 were > 80 µM (inactive) and 7.65 µM (active), respectively.

As for `O=NNc1nc2ccccc2n1Cc1ccccc1`, the results for the EC50 on Hexokinase-1 and at Hexokinase HKDC1 were > 80 µM (inactive) and 18.3 µM (active), respectively.

For the compound `CSc1ccc(OCC(=O)O)cc1C`, the IC50 in assay [3] was > 99 µM (inactive); in assay [4] it was > 100 µM (inactive); in assay [5] it was > 100 µM (inactive); in assay [6], > 100 µM (inactive); in [7], > 100 µM (inactive); in assay [8], > 100 µM (inactive). In addition, the values for the IC50 in assay [9] and in [10] were > 99 µM (inactive) and > 100 µM (inactive), respectively.
